Results: article PMC11474028, “Lipopeptide antibiotics disrupt interactions of undecaprenyl phosphate with UptA” (Proceedings of the National Academy of Sciences of the …, 2024)
Entries after “also recorded” stand apart in the source; their conditions may differ.

How the values were obtained:
UptA R118A/R119A = assay: Native MS of C55-P binding to UptA double mutant R118A/R119A; set-up: species or system Bacillus subtilis; details: 5 µM protein, 10 µM C55-P, pH 8.02, 0.05% LDAO, 200 mM ammonium acetate, 100 V; mean of three biological replicates
MraY = type: binding, Aquifex aeolicus; details: MraY (2.5 µM) and C55-P (10 µM), molar ratio 1:4, pH 8.0 vs pH 5.0; negative control
Source text: UptA is a member of the DedA family of transporters whose cellular functions are potentially driven by proton-motive force and provide conditional fitness to bacteria under alkaline conditions ([25], [26], [36]). […] To this end, we equilibrated C55-P with UptA at a protein/ligand molar ratio of 1:4 in a buffer of the same composition but at pH 8.0 and 5.0. […] As a negative control, we tested for pH sensitivity of C55-P binding to MraY, the latter being the downstream enzyme in the peptidoglycan pathway that couples UM5 to C55-P. To this end, we equilibrated MraY and C55-P at a molar ratio of 1:4 in a buffer of pH 8.0 and pH 5.0.

UptA H119A = assay: Native MS of C55-P binding to UptA mutant H119A; set-up: species or system Bacillus subtilis; details: 5 µM protein, 10 µM C55-P, pH 8.02, 0.05% LDAO, 200 mM ammonium acetate, collisional activation 100 V; three biological replicates
Source text: Conserved arginine residues in the putative membrane reentrant loops of E. coli DedA proteins YqjA (R130) and YghB (R136) are important for the cellular role of these proteins ([36]). […] How these residues impact substrate interactions, however, is not known. Based on the model structure of UptA predicted by AlphaFold, the R112 residue should engage Q64 while R118 is able to form hydrogen bonds with E32, H119, and W146 to potentially stabilize the membrane reentrant loops (Fig. 3A). To test for the impact of these residues on C55-P binding, we generated the E32A, Q64A, R112A, R118A, H119A, and W146A UptA single mutants. After purification of the proteins, using the same protocol as the wild type (WT) (Materials and Methods and SI Appendix, Fig. S5), we equilibrated aliquots of each protein variant (5 µM) with C55-P (10 µM) and recorded spectra using the same instrument settings. […] We additionally generated a double mutant R112E/R118E in which the polarity of both native arginine residues in the wild type are reversed.
Expression and purification of UptA
Plasmids were used to transform chemically competent E. coli C43(DE3) cells (Lucigen) and selected on LB/Agar containing 100 μg/ml ampicillin at 37 °C. Single colonies were used to inoculate 60 mL LB containing 100 μg/ml ampicillin and were grown at 37 °C overnight for 16 h. […]

SMILES: CC(C)=CCC/C(C)=C/CC/C(C)=C/CC/C(C)=C\CC/C(C)=C\CC/C(C)=C\CC/C(C)=C\CC/C(C)=C\CC/C(C)=C\CC/C(C)=C\CC/C(C)=C\COP(=O)(O)O [C55-P, undecaprenyl phosphate]
- reduction in C55-P binding, R118A/R119A (UptA R118A/R119A): 46%
- pH sensitivity of C55-P binding to MraY (in words) (MraY): no pH-dependency in C55-P binding by MraY; also recorded: no significant difference in the intensity of C55-P bound to MraY at pH 8.0 and at pH 5.0
- reduction in C55-P binding intensity compared to wild type, H119A (in words) (UptA H119A): modest reduction
